This is an account of results in PMC7955167 (Structure(London, England:1993), 2021).

Changes are numbered by the printed parent chain. In names and notes the source's numbering stands.

In series [1] the target is T1, IRAK2 (Homo sapiens, UniProt O43187).
T1 construct: pseudokinase domain, residues 192-507
T1 sequence (O43187 192-507): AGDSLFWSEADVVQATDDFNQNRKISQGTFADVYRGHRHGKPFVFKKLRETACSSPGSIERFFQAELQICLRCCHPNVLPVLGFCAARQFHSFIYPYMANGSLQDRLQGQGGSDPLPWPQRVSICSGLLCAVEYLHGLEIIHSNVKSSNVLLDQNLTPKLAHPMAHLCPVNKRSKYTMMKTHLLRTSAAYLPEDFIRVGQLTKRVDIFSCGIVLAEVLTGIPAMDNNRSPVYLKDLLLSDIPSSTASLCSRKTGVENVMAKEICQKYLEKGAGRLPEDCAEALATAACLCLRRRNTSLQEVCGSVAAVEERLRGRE
Description: thermal shift assay dose response with isothermal analysis at […]°C. It is filed as binding.

In series [2] the target is T2, IRAK3 (Homo sapiens, UniProt Q9Y616).
T2 construct: pseudokinase domain, residues 145–454
T2 sequence (Q9Y616 145-454): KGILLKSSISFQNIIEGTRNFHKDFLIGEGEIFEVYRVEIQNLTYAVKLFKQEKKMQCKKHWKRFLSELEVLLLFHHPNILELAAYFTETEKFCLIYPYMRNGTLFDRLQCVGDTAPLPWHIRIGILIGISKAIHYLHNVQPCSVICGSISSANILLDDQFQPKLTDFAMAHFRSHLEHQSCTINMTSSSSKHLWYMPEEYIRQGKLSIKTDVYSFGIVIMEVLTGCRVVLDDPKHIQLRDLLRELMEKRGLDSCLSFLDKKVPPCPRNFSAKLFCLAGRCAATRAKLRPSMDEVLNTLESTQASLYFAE
The series is described as above. It is filed as binding.

Series [3] deals with the molecule itself. Description: crystal structure; IRAK3_(145-454) at 7-10 mg/mL, 0.1 M citric acid pH 5.0, 1.62 M ammonium sulfate, 20°C, hanging drop; 2.9 Å; three molecules in the asymmetric unit.
Series [4] deals with the molecule itself. Description: SEC; analytical gel filtration, Superdex Increase 3.2/300, 20 mM HEPES pH 7.5, 200 mM NaCl, 10% glycerol, 1 mM DTT; 25 μl loaded at 1-5 mg/ml; fractions on SDS-PAGE; monomer to dimer. On the technique in general: SEC sorts molecules by how far they enter the pores of the column.

As for `Nc1ncnc2c1ncn2[C@@H]1O[C@H](COP(=O)(O)OP(=O)(O)OP(=O)(O)O)[C@@H](O)[C@H]1O` [ATP], the Kd was 9.8 ± 3.8 µM in series [1] and roughly 196 µM in series [2].

B1: IRAK3 pseudokinase domain (residues 145-454), wild type (domain or fragment, human, UniProt Q9Y616 145-454, looked up)
chain: T2 sequence (Q9Y616 145-454)
notes: Interleukin-1 receptor associated kinase 3 (IRAK3), human, pseudokinase domain, residues 145-454; Construct 6His-TEV-GST-3C-IRAK3 145-454; the 6His-GST tag was cut off with PreScission protease; also called IRAK3_(145-454); IRAK3-PK; source: Sf21 insect cells (baculovirus), purified (Ni-NTA, GSH sepharose, PreScission cleavage, gel filtration); not shown: His6, N-terminal, cleaved; GST, …
In the case of B1, the “stoichiometry N” value in series [3] was 2.

B2: IRAK3 pseudokinase domain (residues 145-454) E214L (domain or fragment, human, UniProt Q9Y616 145-454, looked up)
chain: T2 sequence (Q9Y616 145-454) with E70L
notes: IRAK3, human, pseudokinase domain, residues 145-454, with E214L; Construct 6His-TEV-GST-3C-IRAK3 145-454 E214L; PDB 6RUU holds the wild-type parent; also called IRAK3_(145-454) E214L; source: Sf21 insect cells (baculovirus), purified (Ni-NTA, GSH sepharose, PreScission cleavage, gel filtration); not shown: His6, N-terminal, cleaved; GST, N-terminal, cleaved
With B2, the “stoichiometry N” value in series [4] was 2.

As a reminder, the Kd is the constant that tells how readily two partners part at equilibrium. For orientation: stoichiometry N means the number of molecules, sites or subunits per partner or assembly.
